Test results published in ChEMBL document CHEMBL5385892, “Advances in the development of phosphodiesterase-4 inhibitors” (Eur J Med Chem, 2023).
pIC50: −log10 of the molar value.

Key:
[1] = molecular target: T1, Phosphodiesterase isozyme 4 (Homo sapiens, UniProt Q86V67); assay: Inhibition of PDE4 (unknown origin)
T1 sequence (Q86V67 whole entry): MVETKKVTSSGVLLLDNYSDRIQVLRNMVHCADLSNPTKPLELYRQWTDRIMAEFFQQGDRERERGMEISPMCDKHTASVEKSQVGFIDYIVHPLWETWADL

[2] = molecular target: Phosphodiesterase 3 (Homo sapiens, UniProt Q14432+Q13370); assay: Inhibition of PDE3 (unknown origin); format: protein assay

pIC50 [1]	IC50 [2] [nM]	Compound
5.83	0.4	O=C(Cc1c(Cl)c[n+]([O-])cc1Cl)c1ccc(OC(F)F)c2c1OC1(CCS(=O)(=O)CC1)O2 [ORISMILAST]
8.55		CNc1nc(-c2cccc(NC(=O)c3ccc(C(=O)OC)cc3)c2)c2cc(OC)c(OC)cc2n1 [LOTAMILAST]
7.59		CCOc1cc(C(CS(C)(=O)=O)N2C(=O)c3csc(NC(C)=O)c3C2=O)ccc1OC (stereo not given)
9.05		COc1ccc(C2=NN(CCCCCc3ccccc3)C(=O)CC2)cc1OC
